The experiment has as its target T1, 5-hydroxytryptamine receptor 1A (Homo sapiens, UniProt P08908).
T1 sequence (P08908 whole entry): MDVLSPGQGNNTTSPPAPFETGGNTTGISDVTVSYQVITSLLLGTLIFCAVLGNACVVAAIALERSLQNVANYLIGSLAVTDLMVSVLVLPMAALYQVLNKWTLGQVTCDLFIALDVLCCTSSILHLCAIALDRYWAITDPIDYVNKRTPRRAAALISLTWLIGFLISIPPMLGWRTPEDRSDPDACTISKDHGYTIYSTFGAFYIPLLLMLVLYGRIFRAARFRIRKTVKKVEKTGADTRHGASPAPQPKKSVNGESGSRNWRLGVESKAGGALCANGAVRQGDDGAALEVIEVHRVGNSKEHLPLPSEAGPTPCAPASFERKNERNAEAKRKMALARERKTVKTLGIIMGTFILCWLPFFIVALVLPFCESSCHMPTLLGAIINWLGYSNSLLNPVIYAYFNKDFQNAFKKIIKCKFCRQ
Description: Displacement of [3H]8-OH-DPAT from human cloned 5HT1A receptor expressed in HEK293 cells. It counts as cell-based.
Turning to `CCCCCN1CCN(c2ccccc2OC)CC1`, affinity was put at a Ki of 5.16 nM.
With `COc1cccc(CCN2CCN(c3ccccc3OC)CC2)c1`, the affinity, expressed as Ki, was 2.4 nM.
Regarding `COc1ccccc1N1CCN(CCc2cccc(OCCCCCOc3cccc(CCN4CCN(c5ccccc5OC)CC4)c3)c2)CC1`, the Ki (as a rule, the dissociation constant of the complex between target and ligand, obtained from inhibition or displacement) came to 1.7 nM.
Consider `CCN(CC)c1ccc2cc(/C=C/C3=[N+](CCCCCC(=O)Oc4cccc(CCN5CCN(c6ccccc6OC)CC5)c4)c4ccccc4C3(C)C)c(=O)oc2c1`, for which the Ki came to 35 nM.
Regarding `COc1ccccc1N1CCN(CCCCCNC(=O)c2ccc(SC3=C(/C=C/C4=[N+](CCCCS(=O)(=O)[O-])c5ccccc5C4(C)C)CCC/C3=C\C=C3\N(CCCCS(=O)(=O)O)c4ccccc4C3(C)C)cc2)CC1`, affinity was put at a Ki of 65.8 nM.

The values above are taken from ChEMBL document CHEMBL1268938, “Identification of a red-emitting fluorescent ligand for in vitro visualization of human serotonin 5-HT(1A) receptors” (Bioorg Med Chem Lett, 2010).
